From US9339034B2, “Use of thaxtomin for selective control of rice and aquatic based weeds” (MARRONE BIO INNOVATIONS, INC., priority 2009, dated 2016)

How the values were obtained:
[1] = tested on: AMM; experiment: Greenhouse pot study, weed control; type: in vivo, Ammania spp.
From the text: Moderate suppression (60%) was noted on Echinochloa colonum at 500 g a.i. per hectare.

[2] = tested on: Leptochloa sp; experiment: Pot study, spray of pure thaxtomin A solutions, % control; type: in vivo, sprangletop: Leptochloa uninervia
Procedure: (§1) A pot study was conducted to test the phytotoxicity of thaxtomin A on broadleaved, sedge and grass weeds. Seeds of two most common broadleaf (redstem; Ammannia spp. and common waterplantain; Alisma plantago-aquatica), sedge (smallflower umbrella sedge; Cyperus diiformis) and grass (sprangletop: Leptochloa uninervia) weeds each were planted in a plastic pots filled with heavy clay soil. The less than 1-inch tall plants grown under growth lights (12-h light/12-h dark) at 28° C. were sprayed with pure thaxtomin A solutions containing 0.05, 0.1, 0.2, and 0.4 mg thaxtomin A per mL of solvent (4% ethanol and 0.2% non-ionic surfactant). A solution of 4% ethanol+0.2% non-ionic surfactant without thaxtomin A was used as a control treatment. Same treatments were applied to three-inch tall rice plants grown submerged under growth lights at 28° C. […] All treatments were applied in three replicates. Treated plants were kept at 28° C. under growth lights and observed at three time points—5, 12 and 21 days after treatment—for visual symptoms of phytotoxicity and % control.

[3] = tested on: mono and dicotyledonous seedlings; conditions: cited from earlier work
[4] = tested on: SPZ; experiment: Greenhouse pot study, weed control; type: in vivo, Sphenoclea zeylanica
[5] = tested on: CYI; experiment: Greenhouse pot study, weed control; type: in vivo, Cyperus iria
[6] = tested on: LEF; experiment: Greenhouse pot study, weed control; type: in vivo
[7] = tested on: Alisma plantago-aquatica; experiment: Pot study, spray of pure thaxtomin A solutions, % control; type: in vivo, common waterplantain; Alisma plantago-aquatica; conditions: for % control: Alisma plantago-aquatica
Procedure: as §1

[8] = 5 DAYS, 0.05 mg/mL in 4% ethanol
[9] = 5 DAYS, 0.1 mg/mL in 4% ethanol
[10] = 5 DAYS, 0.2 mg/mL in 4% ethanol
[11] = 5 DAYS, 0.4 mg/mL in 4% ethanol
[12] = 12 DAYS, 0.05 mg/mL in 4% ethanol
[13] = 12 DAYS, 0.1 mg/mL in 4% ethanol
[14] = 12 DAYS, 0.2 mg/mL in 4% ethanol
[15] = 12 DAYS, 0.4 mg/mL in 4% ethanol
[16] = 21 DAYS, 0.05 mg/mL in 4% ethanol
[17] = 21 DAYS, 0.1 mg/mL in 4% ethanol
[18] = 21 DAYS, 0.2 mg/mL in 4% ethanol

Compound: CN1C(=O)[C@](O)(Cc2cccc(O)c2)N(C)C(=O)[C@@H]1Cc1c[nH]c2cccc([N+](=O)[O-])c12 [thaxtomin A]
- % control ([1]; 64 g/ha): 0%
- % control ([1]; 125 g/ha): 30%
- % control ([1]; 250 g/ha): 90%
- % control ([1]; 500 g/ha): 100%
- % control ([1]; 1000 g/ha): 100%
- % control [2, 8]: 0%
- % control [2, 9]: 0%
- % control [2, 10]: 0%
- % control [2, 11]: 0%
- % control [2, 12]: 0a %
- % control [2, 13]: 2a %
- % control [2, 14]: 10b %
- % control [2, 15]: 10b %
- % control [2, 16]: 0a %
- % control [2, 17]: 3a %
- % control [2, 18]: 12a %
- % control ([2]; 21 DAYS, 0.4 mg/mL in 4% ethanol, listed as Thaxtomin): 17a %
- % control ([2]; 21 DAYS, 0.4 mg/mL in 4% ethanol, listed as Thaxtomin A): 17%
- concentration causing cell swelling, necrosis and growth inhibition [3]: less than 1 uM
- % control ([4]; 64 g/ha): 0%
- % control ([4]; 125 g/ha): 90%
- % control ([4]; 250 g/ha): 90%
- % control ([4]; 500 g/ha): 100%
- % control ([4]; 1000 g/ha): 100%
- % control ([5]; 64 g/ha): 45%
- % control ([5]; 125 g/ha): 45%
- % control ([5]; 250 g/ha): 95%
- % control ([5]; 500 g/ha): 100%
- % control ([5]; 1000 g/ha): 100%
- % control ([6]; 64 g/ha): 0%
- % control ([6]; 125 g/ha): 50%
- % control ([6]; 250 g/ha): 60%
- % control ([6]; 500 g/ha): 70%
- % control ([6]; 1000 g/ha): 100%
- control of common water plantain ([7]; 0.2 mg/ml): complete control
- % control [7, 8]: 8a %
- % control [7, 9]: 28ab %
- % control [7, 10]: 40b %
- % control [7, 11]: 62b %
- % control [7, 12]: 40b %
- % control [7, 13]: 43b %
- % control [7, 14]: 87c %
- % control [7, 15]: 87c %
- % control [7, 16]: 83b %
- % control [7, 17]: 70b %
- % control [7, 18]: 100c %
- % control ([7]; 21 DAYS, 0.4 mg/mL in 4% ethanol): 98c %
